Data on one substance can be found in article PMC9096233, “Identification of an Au(I) N-Heterocyclic Carbene Compound as a Bactericidal Agent Against Pseudomonas aeruginosa” (Frontiers in Chemistry, 2022).

Where two headings read alike, the source gives them in different places. A value given as a limit tells only on which side of the number the result lay.

For assay [1], the system named is P. aeruginosa. Briefly: Time-course of bacterial membrane permeation, propidium iodide microplate. Format: cell-based, Pseudomonas aeruginosa. The following applies: 50 μM; 37°C. As to the method: Overnight P. aeruginosa culture was diluted 1:100 with fresh M9 medium and grown to early-mid exponential phase (OD600 = 0.4–0.6). The culture was then diluted 1:10 into PBS and treated with the 50 μM concentration of Au1 or auranofin for 30 min. Then the bacteria were incubated with propidium iodide (PI), a dye that is excluded from cells with impermeable membrane. The CytoFLEX flow cytometry (Beckman Coulter) was used to measure the bacterial fluorescent intensities and the data was analyzed using CytExpert 2.4 software. For the time-course detection of the bacterial permeability induced by Au1 or auranofin, P. aeruginosa in early-mid exponential phase (OD600 = 0.2) was incubated with PI dye on a 96-well plate. Au1 or auranofin was added to a final concentration of 50 μM. The fluorescence signal (561 nm excitation, 590 nm emission) and OD600 value were recorded on Cytation5 microplate reader. Each experiment was performed in triplicates.

For the next assay, the system named is LasB elastase. Briefly: LasB elastase, Elastin-Congo red assay. The settings on record: 15 μM; 24 h. Format: cell-based, Pseudomonas aeruginosa. The procedure:
(§1) To quantify the secreted virulence factors, overnight P. aeruginosa PAO1 was diluted in fresh M9 medium and cultured to a final OD600 value of 0.15. Then Au1 or auranofin were added into culture with indicated concentrations. After 24 h incubation at 37°C, the bacterial supernatants were collected by centrifugation at 4,000 g for 10 min at 4°C and filtered using a 0.22 μm syringe filter (Millipore). The secreted virulence factors in the supernatant were quantified by the methods described below.
The LasB elastase was examined by Elastin-Congo red assay ([Morihara et al., 1965]). In brief, 700 μL of bacterial supernatant was incubated with 700 μL of 10 mg/ml Elastin-Congo (Sigma-Aldrich) red elastase substrate in reaction buffer (100 mM Tris-HCl, 1 mM CaCl2, pH 7.5) at 37°C for 3 h with shaking. Then 0.2 ml EDTA was added to a final concentration of 10 mM to stop the cleavage reaction. Insoluble pellets were removed by centrifugation and the absorbance of the supernatant at 495 nm was measured.

Another assay has as its system pyocyanin. Briefly: Quantification of secreted pyocyanin. In kind it is cell-based, Pseudomonas aeruginosa. The settings on record: 15 μM; 24 h. The procedure:
as §1
The bacterial secreted pyocyanin was quantified as described previously ([Essar et al., 1990]). Approximately 10 ml bacterial supernatant medium was collected by centrifugation. Subsequently, 3 ml chloroform was added into medium to extract the pyocyanin. The pyocyanin was re-extracted into 1 ml of 0.2 M HCl to give a pink to deep red solution after approximately 30 min. The pyocyanin concentration was determined by measurement the absorbance at 520 nm.

Assay [2] relates to Pseudomonas aeruginosa strain PAO1. Briefly: MIC by standard broth dilution. Format: cell-based. The following applies: read-out: MIC. The procedure: (§2) Pseudomonas aeruginosa strain PAO1 (P. aeruginosa) was grown in M9 minimal medium (1.0 g/L NH4Cl, 0.5 g/L NaCl, 6.0 g/L Na2HPO4, 3.0 g/L KH2PO4) supplemented with 1.0 mM MgSO4, 1.0 mM ZnSO4, 0.2 mM CaCl2, 0.4% (w/v) glucose and 0.2% (w/v) casein hydrolysate. Gram-negative Escherichia coli strain K-12 (E. coli) and Burkholderia cepacia J2315 (B. cepacia) were cultured in Luria-Bertani (LB) medium (5 g/L yeast extract, 10 g/L tryptone, 10 g/L sodium chloride). The Gram-positive Staphylococcus aureus strain Newman (S. aureus) was grown in Tryptic Soy Broth (TSB) medium (17 g/L Tryptone, 3 g/L Phytone, 5 g/L sodium chloride, 2.5 g/L dipotassium phosphate and glucose 2.5 g/L).
(§3) The minimal inhibitory concentration (MIC) values of the gallium compounds were determined using a standard broth dilution method as described previously ([Wiegand et al., 2008]). In brief, the compounds were two-fold serially diluted to concentrations from 400 to 1.56 μM. Approximately 50 μL of the compound solution was added to a 96-well microtiter plate and mixed with 50 μL of bacteria culture in log phase (10^6 CFU/ml). The bacterial culture was further incubated at 37°C for 22–24 h. The OD600 values for each well was recorded on a microplate reader. The MICs value was defined as the lowest compound concentration that inhibited 95% of the bacterial growth.
On the technique in general: Broth dilution looks for growth in wells or tubes with falling amounts of substance.

The next assay has as its system Escherichia coli MG16552. Briefly: MIC by standard broth dilution. Format: cell-based. The settings on record: Table S1. The procedure:
as §2, §3

In assay [3] the test system is Burkholderia cepacia J2315. Briefly: MIC by standard broth dilution. Format: cell-based. The settings on record: Table S1. As to the method: as §2, §3
Assay [4] has as its system Staphylococcus aureus Newman. Briefly: MIC by standard broth dilution. Format: cell-based. The following applies: Table S1. The procedure:
as §2, §3

The test system of assay [5] is P. aeruginosa. Briefly: Checkerboard assay with antibiotics. The following applies: with tobramycin and colistin. In kind it is cell-based, Pseudomonas aeruginosa. An excerpt: Figure S4. Heat plots of checkerboard assays for gold(I) compounds in combination with different antibiotics against P. aeruginosa.

What is called MIC is the least concentration at which growth counts as inhibited. Consider NHC^Me-Au-Cl [Au1], for which the “time to initiation of bacterial membrane rupture” value in the assay on P. aeruginosa [1] turned out to be 1.5 h. For the same substance, in the assay on LasB elastase, the “decrease of elastase secretion” value came out at 38%. Also, the pyocyanin secretion result in the assay on pyocyanin is reported as “almost completely inhibited”. Besides, the MIC is recorded as 25 µM in assay [2] (P. aeruginosa PAO1, lowest concentration inhibiting 95% of growth, 22–24 h, Table 1); 25 µM in assay [2] (Pseudomonas aeruginosa PAO1, Table S1); less than 1.56 µM with Escherichia coli MG16552; 25 µM in assay [3]; less than 1.56 µM in assay [4]. Besides, in the assay on P. aeruginosa [5], the “synergistic effects with antibiotics” value is recorded as “synergistic effects”.
